Test results taken from PMC6219506, “Onsite GTP fuelling via DYNAMO1 drives division of mitochondria and peroxisomes” (Nature Communications, 2018).

Columns and labels:
DYNAMO1 = target: T1, DYNAMO1 (Cyanidioschyzon merolae, UniProt M1USP1); assay: LC-ESI-MS/MS of nucleotides (nucleoside diphosphate kinase activity); assay type: biochemical; settings: 100 nM enzyme, 37 °C, 3 min
T1 construct: gene CYME_CML110C; open reading frame in pGEX6p-1, GST tag cut off with PreScission protease, E. coli XL-1 Blue; 17 kDa; tetramer
T1 sequence (M1USP1 1-153): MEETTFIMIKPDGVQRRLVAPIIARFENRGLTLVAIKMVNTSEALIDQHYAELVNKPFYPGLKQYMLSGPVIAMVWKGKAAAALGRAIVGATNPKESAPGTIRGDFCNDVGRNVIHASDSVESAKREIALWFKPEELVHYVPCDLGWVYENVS

DYNAMO1-Dnm1 string [1] = target: T2, DYNAMO1-Dnm1 string (Cyanidioschyzon merolae, UniProt A0A125YLX6); assay: malachite green phosphate release (GTPase activity); assay type: biochemical; settings: 20 mM HEPES, pH 7.5, 30 mM KCl, 1 mM MgCl2, 1 mM DTT; 37 °C; DYNAMO1 at half the amount of Dnm1
T2 construct: gene CYME_CME019C; with Nucleoside diphosphate kinase-like protein DYNAMO1

DYNAMO1-Dnm1 string [2] = target: T2, DYNAMO1-Dnm1 string; assay: as above; assay type: biochemical; settings: 20 mM HEPES, pH 7.5, 30 mM KCl, 1 mM MgCl2, 1 mM DTT; 37 °C; DYNAMO1 at half the amount of Dnm1; remark: listed apart in the source
[3] = target: recombinant DYNAMO1 (dynamin-based ring motive-force organizer 1), GST removed (Cyanidioschyzon merolae); assay: SEC; 1 μg purified recombinant DYNAMO1 on a Sepharose 6 10/300 GL column, AKTA prime; standards thyroglobulin, γ-globulin, ovalbumin

T2 sequence (A0A125YLX6 entry or part of it, one chain of several): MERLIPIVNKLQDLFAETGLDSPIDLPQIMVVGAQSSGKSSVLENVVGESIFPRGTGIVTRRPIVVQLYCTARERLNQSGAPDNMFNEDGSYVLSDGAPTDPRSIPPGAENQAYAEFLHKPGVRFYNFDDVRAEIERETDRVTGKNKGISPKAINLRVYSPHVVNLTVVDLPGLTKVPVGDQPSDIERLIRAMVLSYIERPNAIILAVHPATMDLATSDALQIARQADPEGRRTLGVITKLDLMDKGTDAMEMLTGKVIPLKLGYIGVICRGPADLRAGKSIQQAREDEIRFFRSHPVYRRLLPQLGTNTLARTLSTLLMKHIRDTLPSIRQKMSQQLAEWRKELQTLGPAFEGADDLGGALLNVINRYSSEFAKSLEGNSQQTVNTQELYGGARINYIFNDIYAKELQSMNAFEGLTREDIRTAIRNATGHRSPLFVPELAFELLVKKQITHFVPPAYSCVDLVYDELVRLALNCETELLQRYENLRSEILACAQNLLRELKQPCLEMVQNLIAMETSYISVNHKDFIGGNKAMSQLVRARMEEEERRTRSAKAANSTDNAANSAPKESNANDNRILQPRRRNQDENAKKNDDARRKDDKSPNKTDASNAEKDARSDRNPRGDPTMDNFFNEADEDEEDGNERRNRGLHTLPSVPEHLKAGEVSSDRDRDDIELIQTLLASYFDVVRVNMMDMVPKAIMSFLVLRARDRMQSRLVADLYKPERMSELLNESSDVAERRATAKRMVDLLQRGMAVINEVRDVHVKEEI

Nc1nc2c(ncn2[C@@H]2O[C@H](COP(=O)(O)OP(=O)(O)O)[C@@H](O)[C@H]2O)c(=O)[nH]1 [GDP]
LC-ESI-MS/MS of nucleotides (nucleoside diphosphate kinase activity) (DYNAMO1; co-substrate ATP): generated GTP upon addition of ATP plus GDP (Fig. 1e, f)

Nc1nc2c(ncn2[C@@H]2O[C@H](COP(=O)(O)OP(=O)(O)OP(=O)(O)O)[C@@H](O)[C@H]2O)c(=O)[nH]1 [GTP]
malachite green phosphate release (GTPase activity) (DYNAMO1-Dnm1 string [1]): the GTPase activity of Dnm1 was higher in DYNAMO1-Dnm1 and DYNAMO1 H116D-Dnm1 strings
malachite green phosphate release (GTPase activity) (DYNAMO1-Dnm1 string [2]): the GTPase activity of Dnm1 was higher in DYNAMO1-Dnm1 and DYNAMO1 H116D-Dnm1 strings

Nc1ncnc2c1ncn2[C@@H]1O[C@H](COP(=O)(O)OP(=O)(O)OP(=O)(O)O)[C@@H](O)[C@H]1O [ATP]
LC-ESI-MS/MS of nucleotides (nucleoside diphosphate kinase activity) (DYNAMO1; co-substrate GDP): generated GTP upon addition of ATP plus GDP (Fig. 1e, f)

recombinant DYNAMO1 (dynamin-based ring motive-force organizer 1), GST removed (natural protein)
stoichiometry N [3]: 4
